One data set can be described thus: Solubility (Test F). It counts as physicochemical. Conditions: arithmetic mean if run multiple times. The procedure:
The assay was conducted according to the Solubility Assay described in pages 164-167 of Wernevik, J. et al., “A Fully Integrated Assay Panel for Early Drug Metabolism and Pharmacokinetics Profiling”, Assay and Drug Development Technologies, 2020, 18(4), 157-179. Data are reported in Table 36 as solubility ([…]. Where the assay was run multiple times for the same compound, the arithmetic mean is reported.

Data set [1] can be described thus: Human Liver Microsomal Stability (Test C). Type of data set: in vitro ADME. Conditions: human, liver microsomes. The procedure:
Human Liver Microsomal Stability (Test C)
The assay was conducted according to the Human Liver Microsome Stability Assay described in pages 170-174 of Wernevik, J. et al., “A Fully Integrated Assay Panel for Early Drug Metabolism and Pharmacokinetics Profiling”, Assay and Drug Development Technologies, 2020, 18(4), 157-179. Data are reported in Table 36 as CLint (μl/min/mg protein). Where the assay was run multiple times for the same compound, the arithmetic mean is reported.

The next data set addresses T1, human RXFP1 (Homo sapiens, UniProt Q9HBX9).
T1 sequence (Q9HBX9 1-757): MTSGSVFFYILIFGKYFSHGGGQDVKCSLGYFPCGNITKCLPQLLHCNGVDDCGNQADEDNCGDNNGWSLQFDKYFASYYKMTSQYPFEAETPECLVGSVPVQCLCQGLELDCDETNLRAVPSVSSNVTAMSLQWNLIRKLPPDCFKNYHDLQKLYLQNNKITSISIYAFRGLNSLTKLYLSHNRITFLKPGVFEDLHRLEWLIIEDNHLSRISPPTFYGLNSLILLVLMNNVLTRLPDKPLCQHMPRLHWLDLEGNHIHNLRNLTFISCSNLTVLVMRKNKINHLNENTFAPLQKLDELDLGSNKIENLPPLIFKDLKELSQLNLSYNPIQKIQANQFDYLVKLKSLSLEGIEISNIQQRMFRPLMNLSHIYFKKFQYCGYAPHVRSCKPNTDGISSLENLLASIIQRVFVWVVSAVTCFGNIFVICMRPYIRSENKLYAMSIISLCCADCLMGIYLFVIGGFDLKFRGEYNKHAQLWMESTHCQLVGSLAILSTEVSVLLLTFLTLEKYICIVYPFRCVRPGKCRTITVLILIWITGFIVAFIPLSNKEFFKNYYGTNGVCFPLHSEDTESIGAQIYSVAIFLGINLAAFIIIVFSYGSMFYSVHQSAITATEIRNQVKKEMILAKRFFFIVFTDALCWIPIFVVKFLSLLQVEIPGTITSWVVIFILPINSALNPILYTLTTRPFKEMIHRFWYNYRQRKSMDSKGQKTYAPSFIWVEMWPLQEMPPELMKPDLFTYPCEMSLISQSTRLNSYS
In words: RXFP1 Hu cAMP (Test A). The conditions noted are these: RXFP1 Hu cAMP; for EC50: read-out: Test A EC50. It counts as cell-based. Also noted: expressed in transfected cells; host or cells: Jump-In T-REx CHO-K1 cells (ThermoFisher), induced with 10 ng/ml doxycycline for 24 h. In short, it runs like this: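 Competitive HTRF cAMP readout (2 h, room temperature) in CHO-K1 cells stably expressing human RXFP1, induced with 10 ng/ml doxycycline for 24 h; IBMX 0.5 mM final.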

Data set [2] in a line: Human Plasma Protein Binding (Test B). It counts as in vitro ADME. The conditions noted are these: fraction unbound (fu). The protocol:
Human Plasma Protein Binding (Test B)
The assay was conducted according to the Human Plasma Protein Binding Assay described in pages 167-170 of Wernevik, J. et al., “A Fully Integrated Assay Panel for Early Drug Metabolism and Pharmacokinetics Profiling”, Assay and Drug Development Technologies, 2020, 18(4), 157-179. Data are reported in Table 36 as fraction unbound (fu) (% free). Where the assay was run multiple times for the same compound, the arithmetic mean is reported.

Data set [3] can be described thus: Rat Hepatocyte Stability (Test E). Type of data set: in vitro ADME. Conditions: rat, hepatocytes, geometric mean if run multiple times. The procedure:
Rat Hepatocyte Stability (Test E)
The assay was conducted according to the Rat Hepatocyte Stability Assay described in pages 170-174 of Wernevik, J. et al., “A Fully Integrated Assay Panel for Early Drug Metabolism and Pharmacokinetics Profiling”, Assay and Drug Development Technologies, 2020, 18(4), 157-179. Data are reported in Table 36 as mean Clint(μl/min/10^6 cells). Where the assay was run multiple times for the same compound, the geometric mean is reported.

Values after ≈ are worked out from the molar mass of the structure shown. Some results are limits rather than exact numbers.

In “Solubility (Test F)”, `COc1cc(C#N)c(O[C@H]2CC[C@@](C)(C(=O)O)CC2)cc1C(=O)N[C@@H]1[C@H]2CC[C@H](C2)[C@@H]1C(=O)NCC1(OC)CCC1` [Example 80] yielded a solubility of 890 µM (≈ 505 µg/mL). Besides, the microsomal CLint in data set [1] stood at 8 µL/min/mg. Besides, at human RXFP1, the “Test A Sinf” value was found to be 105% and the 50% effective concentration (EC50) came to 410 nM. Besides, the “Test B Human Plasma Protein Binding (% free)” value in data set [2] came to 16 % free. The hepatocyte CLint in data set [3] was determined as 23 µL/min/1e6 cells.
With `COc1cc(F)c(O[C@H]2CC[C@@](C)(C(=O)O)CC2)cc1C(=O)N[C@@H]1CCC[C@@H]1C(=O)NCC1(CF)CC1` [Example 56, (1S,4s)-4-(2-Fluoro-5-(((1R,2S)-2-(((1-(fluoromethyl)cyclopropyl)methyl)carbamoyl)cyclopentyl)carbamoyl)-4-methoxyphenoxy)-1-methylcyclohexane-1-carboxylic acid], in “Solubility (Test F)”, the concentration in solution (solubility) came to 980 µM (≈ 512 µg/mL). In data set [1], this molecule returned a microsomal CLint of less than 3 µL/min/mg. At human RXFP1, the “Test A Sinf” value was 105% and the 50% effective concentration (EC50) turned out to be 12000 nM. Besides, in data set [2], the “Test B Human Plasma Protein Binding (% free)” value is reported as 21 % free. The molecule further registered an intrinsic metabolic clearance (hepatocyte CLint) in data set [3] of 17 µL/min/1e6 cells.
The molecule `COc1cc(F)c(O[C@H]2CC[C@@H](C(=O)O)CC2)cc1C(=O)N[C@@H]1[C@H]2CC[C@H](C2)[C@@H]1C(=O)Nc1c(F)cccc1F` [Example 184, (1S,4s)-4-(5-(((1S,2R,3S,4R)-3-((2,6-Difluorophenyl)carbamoyl)bicyclo[2.2.1]heptan-2-yl)carbamoyl)-2-fluoro-4-methoxyphenoxy)cyclohexane-1-carboxylic acid] returned a solubility in the data set “Solubility (Test F)” greater than 1000 µM. In addition, in data set [1], the intrinsic clearance (microsomal CLint) was 7.4 µL/min/mg. In addition, the concentration giving a half-maximal response (EC50) at human RXFP1 was greater than 40000 nM. Further, the “Test B Human Plasma Protein Binding (% free)” value in data set [2] is listed as 8.6 % free. In data set [3], the hepatocyte CLint was 70 µL/min/1e6 cells.
In the data set “Solubility (Test F)”, `CCOCC1(CNC(=O)[C@H]2[C@@H]3CC[C@@H](C3)[C@H]2NC(=O)c2cc(O[C@H]3CC[C@@](C)(C(=O)O)CC3)c(C#N)cc2OC)CCC1` [Example 104] came in with a solubility of 920 µM (≈ 548 µg/mL). Further, the microsomal CLint in data set [1] was 59 µL/min/mg. At human RXFP1, the “Test A Sinf” value is recorded as 122% and the half-maximal effective concentration (EC50) was 270 nM. Also, the “Test B Human Plasma Protein Binding (% free)” value in data set [2] is recorded as 6.4 % free. The molecule also had a hepatocyte CLint in data set [3] of 28 µL/min/1e6 cells.
In the data set “Solubility (Test F)”, `COc1cc(C#N)c(O[C@H]2CC[C@@](C)(C(=O)O)CC2)cc1C(=O)N[C@@H]1[C@H]2CC[C@H](C2)[C@@H]1C(=O)NCC1(F)CCC1` [Example 94] came in with a solubility of 830 µM (≈ 461 µg/mL). In data set [1], this molecule registered a microsomal CLint of 9 µL/min/mg. At human RXFP1, the “Test A Sinf” value is given as 111% and the concentration giving a half-maximal response (EC50) is greater than 710 nM. In addition, the “Test B Human Plasma Protein Binding (% free)” value in data set [2] is 14 % free. The molecule also yielded an intrinsic clearance (hepatocyte CLint) in data set [3] of 32 µL/min/1e6 cells.
The molecule `COc1cc(C#N)c(O[C@H]2CC[C@@](C)(C(=O)O)CC2)cc1C(=O)N[C@@H]1[C@H]2CC[C@H](C2)[C@@H]1C(=O)NCC1(O)CCCCCC1` [Example 103] came in with a solubility in “Solubility (Test F)” of 860 µM (≈ 512 µg/mL). Further, the microsomal CLint in data set [1] was found to be 11 µL/min/mg. Further, at human RXFP1, the EC50 was greater than 5000 nM. In addition, the “Test B Human Plasma Protein Binding (% free)” value in data set [2] is 10 % free. The hepatocyte CLint in data set [3] came out at 38 µL/min/1e6 cells.
`COc1cc(F)c(O[C@H]2CC[C@@H](C(=O)O)CC2)cc1C(=O)N[C@@H]1[C@H]2CC[C@H](C2)[C@@H]1C(=O)Nc1cc(C(F)(F)F)ccn1` [Example 14, (1S,4s)-4-(2-Fluoro-4-methoxy-5-(((1S,2R,3S,4R)-3-((4-(trifluoromethyl)pyridin-2-yl)carbamoyl)bicyclo[2.2.1]heptan-2-yl)carbamoyl)phenoxy)cyclohexane-1-carboxylic acid] yielded a solubility in “Solubility (Test F)” of 770 µM (≈ 457 µg/mL). In data set [1], the intrinsic clearance (microsomal CLint) came to 18 µL/min/mg. On human RXFP1, the “Test A Sinf” value is 83% and the EC50 stood at 510 nM. Moreover, the “Test B Human Plasma Protein Binding (% free)” value in data set [2] was determined as 1.8 % free. In addition, the hepatocyte CLint in data set [3] amounted to 27 µL/min/1e6 cells.
In turn, `COc1cc(C#N)c(O[C@H]2CC[C@@](C)(C(=O)O)CC2)cc1C(=O)N[C@@H]1[C@H]2CC[C@H](C2)[C@@H]1C(=O)NCC1(F)CCCC1` [Example 92] came in with a solubility in “Solubility (Test F)” of 920 µM (≈ 524 µg/mL). The microsomal CLint in data set [1] was found to be 8.4 µL/min/mg. Moreover, at human RXFP1, the “Test A Sinf” value is on record as 122% and the EC50 was 140 nM. Besides, in data set [2], the “Test B Human Plasma Protein Binding (% free)” value came out at 12 % free. For the same molecule, the hepatocyte CLint in data set [3] stood at 32 µL/min/1e6 cells.
`COc1cc(F)c(O[C@H]2CC[C@@H](C(=O)O)CC2)cc1C(=O)N[C@@H]1[C@H]2CC[C@H](C2)[C@@H]1C(=O)Nc1cc(C#N)cc(C(F)(F)F)c1` [Example 191, (1S,4s)-4-(5-(((1S,2R,3S,4R)-3-((3-Cyano-5-(trifluoromethyl)phenyl)carbamoyl)bicyclo[2.2.1]heptan-2-yl)carbamoyl)-2-fluoro-4-methoxyphenoxy)cyclohexane-1-carboxylic acid] returned a solubility in “Solubility (Test F)” greater than 1000 µM. The molecule further displayed a microsomal CLint in data set [1] of 20 µL/min/mg. Further, at human RXFP1, the “Test A Sinf” value is listed as 86% and the EC50 was greater than 3600 nM. Also, the “Test B Human Plasma Protein Binding (% free)” value in data set [2] amounted to 1.1 % free. The hepatocyte CLint in data set [3] was 15 µL/min/1e6 cells.
Turning to `COc1cc(F)c(-c2ccc3c(c2)OC[C@@H]3CC(=O)O)cc1C(=O)N[C@@H]1[C@H]2CC[C@H](C2)[C@@H]1C(=O)Nc1cccc(S(=O)(=O)C(F)(F)F)c1` [Example 254], in “Solubility (Test F)”, the solubility is greater than 1000 µM. This molecule came in with a microsomal CLint in data set [1] of 31 µL/min/mg. Also, on human RXFP1, the “Test A Sinf” value is listed as 114% and the EC50 was determined as 34 nM. In addition, the “Test B Human Plasma Protein Binding (% free)” value in data set [2] is listed as 0.30 % free. Also, the hepatocyte CLint in data set [3] came to 12 µL/min/1e6 cells.
`COc1cc(F)c(O[C@H]2CC[C@@](C)(C(=O)O)CC2)cc1C(=O)N[C@@H]1[C@H]2CC[C@H](C2)[C@@H]1C(=O)N[C@@H](C)C(C)(C)C` [Example 45]: the concentration in solution in the data set “Solubility (Test F)” (solubility) was 960 µM (≈ 525 µg/mL). This molecule yielded an intrinsic clearance (microsomal CLint) in data set [1] of 15 µL/min/mg. Also, the “Test B Human Plasma Protein Binding (% free)” value in data set [2] is reported as 6.9 % free. The molecule also showed an intrinsic clearance (hepatocyte CLint) in data set [3] of 12 µL/min/1e6 cells.
For `COc1cc(F)c(CC2CCC(C)(C(=O)O)CC2)cc1C(=O)NC1C2CCC(C2)C1C(=O)NCC1(C)CCC1` [Example 205, (1R,4r)-4-(2-fluoro-4-methoxy-5-(((1S,2R,3S,4R)-3-(((1-methylcyclobutyl)methyl)carbamoyl)bicyclo[2.2.1]heptan-2-yl)carbamoyl)benzyl)-1-methylcyclohexane-1-carboxylic acid], in that order: 180 µM (≈ 97.7 µg/mL), 49 µL/min/mg, 0.58 % free and 26 µL/min/1e6 cells.
As for `COc1cc(F)c(C[C@H]2CC[C@@](C)(C(=O)O)CC2)cc1C(=O)N[C@@H]1[C@H]2CC[C@H](C2)[C@@H]1C(=O)NCC1(C)CCC1` [Example 204, (1S,4s)-4-(2-fluoro-4-methoxy-5-(((1S,2R,3S,4R)-3-(((1-methylcyclobutyl)methyl)carbamoyl)bicyclo[2.2.1]heptan-2-yl)carbamoyl)benzyl)-1-methylcyclohexane-1-carboxylic acid], the concentration in solution in “Solubility (Test F)” (solubility) was 61 µM (≈ 33.1 µg/mL). In data set [1], this molecule returned a microsomal CLint of 78 µL/min/mg. Further, the “Test B Human Plasma Protein Binding (% free)” value in data set [2] is reported as 0.29 % free. Further, the hepatocyte CLint in data set [3] was 18 µL/min/1e6 cells.

(Values after patent US11667602B2, “Compounds and their use” (AstraZeneca AB, priority 2020, dated 2023).)
